Experimental data as given in patent US8067442B2, “Heterocyclic antiviral compounds” (Roche Palo Alto LLC, priority 2008, dated 2011).

Each molecule was assayed against T1, HCV polymerase (NS5B570n-Con1) (Hepatitis C virus genotype 1b, UniProt Q9WMX2) (assay: biochemical).
T1 construct: a 21 amino acid C-terminal deletion of full-length HCV polymerase; made in house; host or cells: E. coli BL21(DE3) pLysS, plasmid pET17b
Parameters: species or system HCV Con1 strain
Protocol: The enzymatic activity of HCV polymerase (NS5B570n-Con1) was measured as the incorporation of radiolabeled nucleotide monophosphates into acid insoluble RNA products. Unincorporated radiolabeled substrate was removed by filtration and scintillant was added to the washed and dried filter plate containing radiolabeled RNA product. The amount of RNA product generated by NS5B570n-Con1 at the end of the reaction was directly proportional to the amount of light emitted by the scintillant.
The HCV polymerase used in the enzymatic activity assay is a 21 amino acid C-terminal deletion of full-length HCV polymerase derived from HCV Con1 strain, genotype 1b (GenBank accession number AJ242654) (NS5B570n-Con1). The NS5B570n-Con1 was sub-cloned downstream to the T7 promoter of the plasmid expression construct pET17b and transformed into E. coli strain BL21(DE3) pLysS for protein expression. A single colony was used to start an innoculum for a 10 L culture in LB media supplemented with 100 μg/mL ampicillin at 37° C. Protein expression was induced by the addition of 0.25 mM isopropyl-β-D-thiogalactopyranoside (IPTG) when the optical density of the culture at […] was 0.8. Induction of protein expression was carried out at 30° C. for 16 h after which the cells were harvested by centrifugation. NS5B570n-Con1 was purified to homogeneity using a three-column purification protocol including subsequent column chromatography on Ni-NTA, SP-Sepharose HP and Superdex 75 resins.
Enzymatic reactions in the presence of cIRES RNA template (see section [0300]) contained 20 nM cIRES RNA, 20 nM NS5B570n-Con1 enzyme, 0.5 μCi of tritiated UTP (Perkin Elmer catalog no. TRK-412; specific activity: 30 to 60 Ci/mmol), 1 μM each ATP, CTP, and GTP, 40 mM Tris-HCl pH 8.0, 40 mM NaCl, 4 mM DTT (dithiothreitol), 4 mM MgCl2, 5 μl of compound serial diluted in DMSO, and nuclease-free water to a final reaction volume of 50 μl. Enzymatic reactions in the presence of 20 nM cIRES template, 20 nM NS5B570n-Con1 enzyme, 1 μCi of tritiated UTP (Perkin Elmer catalog no. TRK-412; specific activity: 30 to 60 Ci/mmol), 40 mM Tris-HCl pH 8.0, 40 mM NaCl, 4 mM DTT (dithiothreitol), 4 mM MgCl2, 5 μl of compound serial diluted in DMSO, and nuclease-free water to a final reaction volume of 50 μl. Reaction mixtures were assembled in 96-well filter plates (cat #MADVNOB, Millipore Co.) and incubated for 2 h at 30° C. Reactions were stopped by addition of 10% final (v/v) trichloroacetic acid and incubated for 40 min at 4° C. Reactions were filtered, washed with 8 reaction volumes of 10% (v/v) trichloroacetic acetic acid, 4 reaction volumes of 70% (v/v) ethanol, air dried, and 25 μl of scintillant (Microscint 20, Perkin-Elmer) was added to each reaction well.
Two RNA templates can be used to assay compounds described herein. The cIRES RNA template is 377 nucleotide long and consisting of a partial complementary sequence (36 nucleotides) of the core protein, followed by 341 nucleotide of the complementary sequence of the internal ribosome entry site. The poly A RNA template (GE Amersham catalog number 27-4110) was a homopolymeric RNA pre-annealed to a oligo(rU)16 primer at a molar ratio of 3-to-1 (primer-template). The cIRES template was used in the assay unless otherwise noted.
The amount of light emitted from the scintillant was converted to counts per minute (CPM) on a Topcount® plate reader (Perkin-Elmer, Energy Range: Low, Efficiency Mode Normal, Count Time: 1 min, Background Subtract: none, Cross talk reduction: Off).
Data was analyzed in Excel® (Microsoft®) and ActivityBase® (Idbs®). The reaction in the absence of enzyme was used to determine the background signal, which was subtracted from the enzymatic reactions. […] All data was expressed as a percentage of the positive control. The compound concentration at which the enzyme-catalyzed rate of RNA synthesis was reduced by 50% (IC50) was calculated by fitting
Work on `CNC(=O)c1coc2c(C(C)(C)C)cc(-c3ccc[nH]c3=O)cc12` [Compound I-22] yielded an IC50 of 770 nM.
`CC(C)(C)c1cc(-c2ccc[nH]c2=O)cc2c(C(=O)O)coc12` [Compound I-4, 7-tert-butyl-5-(2-oxo-1,2-dihydro-pyridin-3-yl)-benzofuran-3-carboxylic acid] showed an IC50 of 381 nM.
For `CC(C)(C)c1cc(-c2cc(F)c[nH]c2=O)cc2c(-c3ccc(CNS(C)(=O)=O)cc3)coc12` [Compound I-74], the IC50 was 37 nM.
Molecule `CC(C)(C)c1cc(-c2ccc[nH]c2=O)cc2c(C(=O)N3CCCC(O)C3)coc12` (stereo not drawn) [Compound I-27] has an IC50 of 186 nM.
`CN(C)[C@H]1CCN(C(=O)c2coc3c(C(C)(C)C)cc(-c4ccc[nH]c4=O)cc23)C1` [Compound I-53] was tested, and the IC50 was 454 nM.
In the case of `CC(C)(C)c1cc(-c2ccc[nH]c2=O)cc2c(C(=O)N3CCC(O)(C(N)=O)CC3)coc12` [Compound I-64], the IC50 is reported as 97 nM.
`CC(C)(C)c1cc(-c2ccc[nH]c2=O)cc2c(C(=O)N3CCOC(CO)C3)coc12` (stereo not drawn) [Compound I-15] showed an IC50 of 325 nM.
With `CCOC(=O)c1coc2c(C(C)(C)C)cc(-c3ccc[nH]c3=O)cc12` [Compound I-3, 7-tert-butyl-5-(2-oxo-1,2-dihydro-pyridin-3-yl)-benzofuran-3-carboxylic acid ethyl ester] the IC50 was 258 nM.
Work on `CC(C)(C)c1cc(-c2ncc[nH]c2=O)cc2c(C(=O)N3CCOC(CNS(C)(=O)=O)C3)coc12` (stereo not drawn) [Compound 100, N-{4-[7-tert-Butyl-5-(3-oxo-3,4-dihydro-pyrazin-2-yl)-benzofuran-3-carbonyl]-morpholin-2-ylmethyl}-methanesulfonamide] yielded an IC50 of 28 nM.
`Cn1cc(C#N)c2cc(-c3ccc[nH]c3=O)cc(C(C)(C)C)c21` [Compound I-110] showed an IC50 of 314 nM.
`CC(C)(C)c1cc(-c2ccc[nH]c2=O)cc2c(C(=O)N3CCCC(CCS(C)(=O)=O)C3)coc12` (stereo not drawn) [Compound 132, 3-{7-tert-Butyl-3-[3-(2-methanesulfonyl-ethyl)-piperidine-1-carbonyl]-benzofuran-5-yl}-1H-pyridin-2-one] showed an IC50 of 29 nM.
`CC(C)(C)c1cc(-c2ccc[nH]c2=O)cc2c(C(=O)N3CCC(NC(=O)C(F)(F)F)C3)coc12` (stereo not drawn) [Compound I-60] showed an IC50 of 51 nM.
In the case of `CCNC1(C(N)=O)CCN(C(=O)c2coc3c(C(C)(C)C)cc(-c4ccc[nH]c4=O)cc23)CC1` [Compound I-66], the IC50 is reported as 134 nM.
Work on `CC(C)(C)c1cc(-c2ccc[nH]c2=O)cc2c(CO)coc12` [Compound I-8] yielded an IC50 of 515 nM.
`CC(C)(C)OC(=O)N[C@@H]1CCCN(C(=O)c2coc3c(C(C)(C)C)cc(-c4ccc[nH]c4=O)cc23)C1` [Compound I-38] was tested, and the IC50 was 132 nM.
Molecule `CC(C)(C)OC(=O)NCC1CCN(C(=O)c2coc3c(C(C)(C)C)cc(-c4ccc[nH]c4=O)cc23)C1` (stereo not drawn) [Compound I-45] has an IC50 of 76 nM.
`CC(C)(C)c1cc(-c2ccc[nH]c2=O)cc2c(-c3ccc(C#N)cc3)coc12` [Compound I-35] showed an IC50 of 72 nM.
In the case of `CC(C)(C)c1cc(-c2ccc[nH]c2=O)cc2c(C(=O)N3CCOCC3)coc12` [Compound I-7], the IC50 is reported as 142 nM.
`CC(C)NC(=O)c1coc2c(C(C)(C)C)cc(-c3ccc[nH]c3=O)cc12` [Compound I-9] gave an IC50 of 1540 nM.
Work on `CC(C)(C)c1cc(-c2ccc[nH]c2=O)cc2c(C(=O)N3CC[C@@H](CNS(C)(=O)=O)C3)coc12` [Compound I-73, N-{(R)-1-[7-tert-Butyl-5-(2-oxo-1,2-dihydro-pyridin-3-yl)-benzofuran-3-carbonyl]-pyrrolidin-3-ylmethyl}-methanesulfonamide] yielded an IC50 of 21 nM.
`CC(=O)N1CCN(C(=O)c2coc3c(C(C)(C)C)cc(-c4ccc[nH]c4=O)cc23)CC1` [Compound I-52] was tested, and the IC50 was 1250 nM.
`CC(C)(C)c1cc(-c2ccc[nH]c2=O)cc2c(-c3cccc(CN)c3)coc12` [Compound I-62] was tested, and the IC50 was 893 nM.
Molecule `CC(C)(C)c1cc(-c2ccc[nH]c2=O)cc2c(C(=O)N3CCC[C@H]3CO)coc12` [Compound I-17] has an IC50 of 112 nM.
For `CC(C)(C)c1cc(-c2ccc[nH]c2=O)cc2c(C(=O)N3CCC(F)(F)CC3)coc12` [Compound I-68], the IC50 was 597 nM.
